Laboratory results as given in the CheMixHub viscosity set.

Experiment: xn = mol fraction of the nth substance listed

CCCCCCCCO + CCO
viscosity [mPa·s], 101 kPa
Settings | 298.15 K | 303.15 K | 308.15 K | 318.15 K
x2 = 0.05 | 6.909 | – | 4.994 | 3.689
x2 = 0.1 | 6.475 | – | 4.73 | 3.51
x2 = 0.1301 | – | 5.471 | – | –
x2 = 0.15 | 6.058 | – | 4.466 | 3.331
x2 = 0.2 | 5.658 | – | 4.204 | 3.154
x2 = 0.243 | – | 4.607 | – | –
x2 = 0.25 | 5.273 | – | 3.945 | 2.979
x2 = 0.3 | 4.903 | – | 3.69 | 2.805
x2 = 0.3339 | – | 4.001 | – | –
x2 = 0.35 | 4.546 | – | 3.441 | 2.634
x2 = 0.4 | 4.202 | – | 3.198 | 2.466
x2 = 0.45 | 3.871 | – | 2.961 | 2.301
x2 = 0.5 | 3.552 | – | 2.733 | 2.14
x2 = 0.5477 | – | 2.922 | – | –
x2 = 0.55 | 3.245 | – | 2.512 | 1.982
x2 = 0.6 | 2.951 | – | 2.3 | 1.828
x2 = 0.65 | 2.668 | – | 2.096 | 1.678
x2 = 0.6979 | – | 2.169 | – | –
x2 = 0.7 | 2.398 | – | 1.901 | 1.532
x2 = 0.75 | 2.141 | – | 1.714 | 1.391
x2 = 0.8 | 1.897 | – | 1.535 | 1.254
x2 = 0.8094 | – | 1.689 | – | –
x2 = 0.85 | 1.668 | – | 1.364 | 1.121
x2 = 0.8948 | – | 1.362 | – | –
x2 = 0.9 | 1.453 | – | 1.199 | 0.9926
x2 = 0.95 | 1.255 | – | 1.04 | 0.8687
x2 = 0.9602 | – | 1.121 | – | –

C=Cc1ccccc1 + CCCCCCO
viscosity [mPa·s], 101.33 kPa
Settings | x1 = 0.0998 | x1 = 0.2024 | x1 = 0.3078 | x1 = 0.4006 | x1 = 0.5007 | x1 = 0.5988 | x1 = 0.6993 | x1 = 0.7986 | x1 = 0.8985
298.15 K | 3.131 | 2.522 | 1.956 | 1.613 | 1.293 | 1.134 | 0.972 | 0.891 | 0.808
303.15 K | 2.773 | 2.177 | 1.703 | 1.446 | 1.154 | 1.051 | 0.89 | 0.84 | 0.747
308.15 K | 2.296 | 1.88 | 1.497 | 1.298 | 1.114 | 1.008 | 0.86 | 0.81 | 0.693

CCN(CC)CCO.Cl + OCCOCCO
101 kPa, x2 = 0.75
Settings | viscosity [mPa·s]
293.15 K | 56.09
303.15 K | 50.09
313.15 K | 35.93
323.15 K | 25.49

CC12CC3CC(C1)CC(C)(C3)C2 + CCCCC1CCCCC1
viscosity [mPa·s], 100 kPa
Settings | x1 = 0.083 | x1 = 0.1716 | x1 = 0.2652 | x1 = 0.3625 | x1 = 0.4617 | x1 = 0.5636 | x1 = 0.662 | x1 = 0.7728 | x1 = 0.8838
293.15 K | 1.407 | 1.518 | 1.654 | 1.802 | 1.989 | 2.215 | 2.472 | 2.797 | 3.222
298.15 K | 1.293 | 1.391 | 1.512 | 1.643 | 1.805 | 2.007 | 2.229 | 2.518 | 2.885
303.15 K | 1.194 | 1.281 | 1.389 | 1.506 | 1.647 | 1.828 | 2.024 | 2.272 | 2.601
313.15 K | 1.03 | 1.099 | 1.187 | 1.28 | 1.393 | 1.537 | 1.692 | 1.883 | 2.145
323.15 K | 0.893 | 0.951 | 1.008 | 1.088 | 1.182 | 1.289 | 1.414 | 1.583 | 1.774

C=Cc1ccccc1 + CCO
viscosity [mPa·s], 101.33 kPa
Settings | x1 = 0.0997 | x1 = 0.1994 | x1 = 0.3013 | x1 = 0.3987 | x1 = 0.5004 | x1 = 0.6011 | x1 = 0.7001 | x1 = 0.7976 | x1 = 0.8989
298.15 K | 1.01 | 0.932 | 0.849 | 0.798 | 0.764 | 0.747 | 0.737 | 0.731 | 0.72
303.15 K | 0.93 | 0.861 | 0.777 | 0.735 | 0.711 | 0.701 | 0.693 | 0.688 | 0.679
308.15 K | 0.848 | 0.786 | 0.711 | 0.681 | 0.661 | 0.652 | 0.645 | 0.64 | 0.634

CCCCCCCCO + CCCCCCCC
298.15 K, 101.33 kPa
Settings | viscosity [mPa·s]
x1 = 0.0015 | 0.491
x2 = 0.0566 | 6.369
x2 = 0.1294 | 5.058
x2 = 0.2321 | 3.637
x2 = 0.353 | 2.469
x2 = 0.4724 | 1.705
x2 = 0.527 | 1.452
x2 = 0.6297 | 1.094
x2 = 0.778 | 0.764
x2 = 0.8294 | 0.683
x2 = 0.9163 | 0.572

BrC(Br)Br + CCC(C)=O
viscosity [mPa·s]
Settings | x1 = 0.1474 | x1 = 0.1586 | x1 = 0.3005 | x1 = 0.3052 | x1 = 0.5009 | x1 = 0.5019 | x1 = 0.6499 | x1 = 0.6501 | x1 = 0.8432 | x1 = 0.8502
298 K, 101.3 kPa | – | 0.583 | – | 0.768 | 1.072 | – | – | 1.318 | 1.626 | –
318 K, 101.33 kPa | 0.4678 | – | 0.6228 | – | – | 0.8523 | 1.038 | – | – | 1.298

BrC(Br)Br + CC(C)CCO
viscosity [mPa·s], 101.33 kPa
Settings | x1 = 0.099 | x1 = 0.203 | x1 = 0.299 | x1 = 0.422 | x1 = 0.498 | x1 = 0.599 | x1 = 0.702 | x1 = 0.803 | x1 = 0.9
298.15 K | 3.419 | 3.063 | 2.77 | 2.415 | 2.265 | 2.111 | 1.957 | 1.888 | 1.873
303.15 K | 2.937 | 2.643 | 2.384 | 2.145 | 2.025 | 1.909 | 1.795 | 1.739 | 1.737
308.15 K | 2.527 | 2.306 | 2.111 | 1.905 | 1.815 | 1.729 | 1.647 | 1.61 | 1.605
